Here are results for 60 compounds from patent US9458141B2, “Low molecular weight thyroid stimulating hormone receptor (TSHR) agonists” (The United States of America, as represented by the …, priority 2008, dated 2016).

This experiment deals with T1, human TSHR (Homo sapiens, UniProt P16473).
T1 construct: expressed in transfected cells
Kind of experiment: Homogeneous Time Resolved Fluorescence (HTRF) cAMP assay, TSHR cell line. It counts as cell-based. To be noted: for AC50: HTRF cAMP, TSHR cell line, 30 minute incubation; for Emax: read-out: Maximum Activity compared to TSH, 100% activity = response of 30 mU/ml TSH, 0% = DMSO control; for Maximum Activity compared to TSH: 100% activity = response of 30 mU/ml TSH, 0% = DMSO control, in %.

What is called AC50 is the concentration giving half of the maximal activity seen.

Where two headings read alike, the source gives them in different places.

T1 sequence (P16473 21-764): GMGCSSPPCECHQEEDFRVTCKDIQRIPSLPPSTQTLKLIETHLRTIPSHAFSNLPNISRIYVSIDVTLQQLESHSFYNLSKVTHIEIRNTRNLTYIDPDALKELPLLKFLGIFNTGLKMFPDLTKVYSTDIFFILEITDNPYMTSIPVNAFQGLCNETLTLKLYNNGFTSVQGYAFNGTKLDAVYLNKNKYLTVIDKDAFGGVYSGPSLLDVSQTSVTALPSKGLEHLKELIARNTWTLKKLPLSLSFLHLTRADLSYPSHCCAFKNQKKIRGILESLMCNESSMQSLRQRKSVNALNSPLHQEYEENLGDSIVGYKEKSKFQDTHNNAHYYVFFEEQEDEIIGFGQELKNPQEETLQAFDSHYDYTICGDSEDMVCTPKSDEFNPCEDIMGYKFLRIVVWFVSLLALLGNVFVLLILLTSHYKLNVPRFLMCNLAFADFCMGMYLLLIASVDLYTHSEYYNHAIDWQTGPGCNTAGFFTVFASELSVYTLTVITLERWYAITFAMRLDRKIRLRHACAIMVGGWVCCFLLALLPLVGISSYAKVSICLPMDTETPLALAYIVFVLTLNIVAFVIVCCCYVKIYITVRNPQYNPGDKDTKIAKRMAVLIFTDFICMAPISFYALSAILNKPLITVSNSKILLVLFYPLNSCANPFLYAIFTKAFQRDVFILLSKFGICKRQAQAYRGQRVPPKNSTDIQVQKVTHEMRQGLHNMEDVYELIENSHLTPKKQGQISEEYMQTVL

For `O=C(c1ccccc1O)N(Cc1ccco1)Cc1cccs1` [Structure 113], the Emax came out at 63.8%. Besides, the AC50 (read-out: AC50) was 39.8 µM.
For `COc1ccc(C(=O)N(Cc2ccccc2)Cc2ccccc2)c(O)c1` [Structure 114], the “Maximum Activity compared to TSH” value is 51.15. In addition, the AC50 (read-out: AC50) worked out at 25.1 µM.
Consider `COc1ccc(C2Nc3ccccc3C(=O)N2Cc2ccccn2)cc1COc1ccc(NC(C)=O)cc1` (centres unmarked) [Structure 115], for which the “Maximum Activity compared to TSH” value was 66.81. The AC50 (read-out: AC50) amounted to 39.8 µM.
Turning to `COc1ccc(-c2nc3ccccc3c(=O)n2Cc2ccc(CNC(=O)CO)cc2)cc1COc1ccc(NC(C)=O)cc1` [Structure 116], the Emax is 54.6%. For the same compound, the AC50 (read-out: AC50) was found to be 35.5 µM.
Take `COc1ccc(CN(Cc2ccccc2)C(=O)c2ccncc2)cc1COc1ccc(NC(C)=O)cc1` [Structure 117]: the “Maximum Activity compared to TSH” value is 87.19. The AC50 (read-out: AC50) is 44.7 µM.
For `COc1ccc(C(=O)N(Cc2ccccc2)Cc2ccco2)c(O)c1` [Structure 118], in that order: 96.91 and 28.2 µM.
As for `COc1ccc(C2Nc3ccc(Cl)cc3C(=O)N2Cc2ccccc2)cc1COc1ccc(NC(C)=O)cc1` (centres unmarked) [Structure 119], the “Maximum Activity compared to TSH” value stood at 56.31. Further, the AC50 (read-out: AC50) is 14.1 µM.
In the case of `COc1ccc(C(=O)N(Cc2ccccc2)Cc2ccccc2)cc1COc1ccc(NC(C)=O)cc1` [Structure 120], the Emax is 40.5%. The AC50 (read-out: AC50) was determined as 15.8 µM.
In the case of `COc1ccc(C(=O)N(Cc2ccco2)Cc2ccco2)c(O)c1` [Structure 121], the “Maximum Activity compared to TSH” value was found to be 38.00. Moreover, the AC50 (read-out: AC50) is 39.8 µM.
Regarding `COc1ccc(C(=O)N(Cc2ccco2)Cc2ccco2)c(O)c1` [Structure 122], the “Maximum Activity compared to TSH” value was determined as 61.90. Also, the AC50 (read-out: AC50) was found to be 50.1 µM.
Regarding `COc1ccc(C2Nc3ccc(Cl)cc3C(=O)N2Cc2ccccc2)cc1COc1ccc(NC(C)=O)cc1` (centres unmarked) [Structure 123], the “Maximum Activity compared to TSH” value was 83.18. Besides, the AC50 (read-out: AC50) worked out at 14.1 µM.
As for `COc1ccc(CN(Cc2ccccc2)C(=O)c2ccc(OC)cc2O)cc1` [Structure 124], the “Maximum Activity compared to TSH” value turned out to be 62.73. Where the note is “read-out: AC50”, the AC50 stood at 31.6 µM.
With `COc1ccc(C2Nc3ccccc3C(=O)N2Cc2ccncc2)cc1COc1ccc(NC(C)=O)cc1` (centres unmarked) [Structure 125], the Emax was 56.4%. Further, the AC50 (read-out: AC50) is 39.8 µM.
In the case of `COc1ccc(-c2nc3ccccc3c(=O)n2Cc2ccc(CNC(=O)CO)cc2)cc1COc1ccc(NC(C)=O)cc1` [Structure 126], the “Maximum Activity compared to TSH” value came out at 36.00. Moreover, the AC50 (read-out: AC50) was determined as 17.8 µM.
With `COc1ccc(C2Nc3ccccc3C(=O)N2Cc2ccccc2)cc1COc1cccc(C)c1` (centres unmarked) [Structure 127], the Emax turned out to be 38%. Further, where the note is “read-out: AC50”, the AC50 stood at 14.1 µM.
Regarding `COc1ccc(C2Nc3ccccc3C(=O)N2Cc2ccc(CNC(=O)CO)cc2)cc1COc1ccc(NC(C)=O)cc1` (centres unmarked) [Structure 128], the “Maximum Activity compared to TSH” value amounted to 69.13. Moreover, where the note is “read-out: AC50”, the AC50 was found to be 39.8 µM.
Take `O=C(c1ccccc1O)N(Cc1ccccc1)Cc1ccccc1` [Structure 129]: the “Maximum Activity compared to TSH” value came to 51.77. Under “read-out: AC50”, the AC50 is 28.2 µM.
For `COc1ccc(CN(Cc2ccccc2)C(=O)COC(C)=O)cc1COc1ccc(NC(C)=O)cc1` [Structure 130], in that order: 53.70 and 50.1 µM.
For `COc1ccc(C(=O)N(Cc2ccccc2)Cc2ccccc2)c(O)c1` [Structure 131], in that order: 99.01 and 35.5 µM.
Regarding `COc1ccc(C2Nc3ccccc3C(=O)N2Cc2ccncc2)cc1COc1ccc(NC(C)=O)cc1` (centres unmarked) [Structure 132], the “Maximum Activity compared to TSH” value is 44.00. Also, the concentration at half-maximal activity (AC50) (read-out: AC50) was 31.6 µM.
For `O=C(c1ccccc1O)N(Cc1cccs1)Cc1cccs1` [Structure 133], the Emax worked out at 55.3%. Moreover, the AC50 (read-out: AC50) worked out at 31.6 µM.
Turning to `COc1ccc(CNc2ccccc2C(=O)NCc2ccccc2)cc1COc1ccc(NC(C)=O)cc1` [Structure 134], the “Maximum Activity compared to TSH” value came out at 30.50. Besides, the AC50 (read-out: AC50) amounted to 8.91 µM.
As for `COc1ccc(CN(Cc2ccccc2)C(=O)Nc2ccccc2)cc1COc1ccc(NC(C)=O)cc1` [Structure 135], the “Maximum Activity compared to TSH” value is given as 48.07.
As for `COc1ccc(CN(Cc2ccccc2)C(=O)c2ccc(OC)cc2O)cc1` [Structure 136], the “Maximum Activity compared to TSH” value is 37.00. In addition, the AC50 (read-out: AC50) is 28.2 µM.
With `COc1ccc(C2NC(=O)c3ccccc3N2)cc1COc1ccc(NC(C)=O)cc1` (centres unmarked) [Structure 137], the AC50 entry is “inactive”.
Regarding `COc1ccc(C2Nc3ccccc3C(=O)N2C2CCCC2)cc1COc1ccc(NC(C)=O)cc1` (centres unmarked) [Structure 138], the Emax is 31.5%. For the same compound, the AC50 (read-out: AC50) worked out at 20 µM.
With `COc1ccc(C2Nc3ccccc3C(=O)N2Cc2ccccc2C)cc1COc1ccc(NC(C)=O)cc1` (centres unmarked) [Structure 139], the AC50 entry was “inactive”.
Still for that read-out and setting: in the case of `COc1ccc(C2Nc3ccccc3C(=O)N2Cc2ccccc2)cc1COc1ccc(Cl)cc1` (centres unmarked) [Structure 140] it was “inactive”; in that of `COc1ccc(C2Nc3ccccc3C(=O)N2Cc2ccco2)cc1COc1c(C)cccc1C` (centres unmarked) [Structure 141], “inactive”.
Consider `O=C(c1ccccc1O)N(Cc1ccccc1)Cc1cccs1` [Structure 142], for which the Emax worked out at 34%. In addition, the AC50 (read-out: AC50) worked out at 20 µM.
In the case of `CC(C)c1ccc(C2C3=C(CC(c4ccco4)CC3=O)Nc3nc(C(F)(F)F)nn32)cc1` (centres unmarked) [Structure 143], the AC50 entry was “inactive”.
Take `CC(=O)Nc1ccc(OCc2cccc(C3Nc4ccccc4C(=O)N3Cc3ccco3)c2)cc1` (centres unmarked) [Structure 144]: the AC50 entry was “inactive”.
Same read-out and setting: in the case of `COc1ccc(CN(Cc2ccccc2)C(=O)CN2CCN(C)CC2)cc1COc1ccc(NC(C)=O)cc1` [Structure 145] it was “inactive”; in that of `COc1ccc(C2Nc3ccccc3C(=O)N2CCCN(C)C)cc1COc1ccc(NC(C)=O)cc1` (centres unmarked) [Structure 146], “inactive”.
`O=C1CC(c2ccco2)CC2=C1C(c1cccnc1)n1nc(C(F)(F)F)nc1N2` (centres unmarked) [Structure 147]: the AC50 entry was “inactive”.
The same measure, in the same setting: in the case of `O=C1c2ccccc2NC(c2cc(Br)c3c(c2)OCO3)N1Cc1ccco1` (centres unmarked) [Structure 148] it was “inactive”; in that of `CC(=O)Nc1cccc(OCc2cccc(C3Nc4ccccc4C(=O)N3Cc3ccco3)c2)c1` (centres unmarked) [Structure 149], “inactive”; in that of `COc1ccc(C2Nc3ccccc3CN2Cc2ccco2)cc1COc1cccc(NC(C)=O)c1` (centres unmarked) [Structure 150], “inactive”.
`COc1ccc(C2Nc3ccccc3C(=O)N2Cc2ccco2)cc1COc1cccc(NC(C)=O)c1` (centres unmarked) [Structure 151]: the AC50 entry was “inactive”.
For the compound `COc1ccc(C2Nc3ccccc3C(=O)N2Cc2ccccc2)cc1COc1ccc(F)cc1` (centres unmarked) [Structure 152], the AC50 result was “inactive”.
Same read-out and setting: in the case of `Nc1ccccc1C(=O)NCc1ccco1` [Structure 153] it was “inactive”; in that of `O=C(c1ccccc1O)N(Cc1ccco1)Cc1cccs1` [Structure 154], “inactive”.
For `COc1ccc(-c2nc3ccc(NC(C)=O)cc3c(=O)n2Cc2cccc(Cl)c2)cc1COc1ccc(NC(C)=O)cc1` [Structure 155], the “Maximum Activity compared to TSH” value was found to be 25.50. Moreover, the AC50 (read-out: AC50) worked out at 12.6 µM.
As for `COc1ccc(C2Nc3ccccc3C(=O)N2Cc2ccco2)cc1` (centres unmarked) [Structure 156], the AC50 entry is “inactive”.
The same measure, in the same setting: in the case of `O=C1c2ccccc2NC(c2ccccc2O)N1Cc1ccccc1` (centres unmarked) [Structure 157] it was “inactive”; in that of `COc1ccc2c(c1OC)C(=O)N1c3ccccc3C(=O)N(Cc3ccco3)C21` (centres unmarked) [Structure 158], “inactive”.
For the compound `CC(=O)Nc1ccc(OCc2cccc(-c3nc4ccccc4c(=O)n3Cc3ccco3)c2)cc1` [Structure 159], the AC50 result is “inactive”.
Turning to `COc1ccc(C(=O)C2C(=O)C(=O)N(Cc3ccco3)C2c2cccs2)cc1` (centres unmarked) [Structure 160], the Emax turned out to be 28%. The AC50 (read-out: AC50) was determined as 50.1 µM.
Regarding `COc1ccc(CN(Cc2ccccc2)C(C)=O)cc1COc1ccc(NC(C)=O)cc1` [Structure 161], the AC50 entry was “inactive”.
The same measure, in the same setting: in the case of `COc1ccc(C2Nc3ccccc3C(=O)N2Cc2ccco2)cc1COc1c(C)cccc1C` (centres unmarked) [Structure 162] it was “inactive”.
Take `COc1ccc(C2Nc3ccccc3C(=O)N2Cc2ccccc2)cc1Oc1ccc(NC(C)=O)cc1` (centres unmarked) [Structure 163]: the concentration at half-maximal activity (AC50) entry is “inactive”.
With `COc1ccc(C2Nc3ccccc3C(=O)N2Cc2ccccc2)cc1COc1cccc(C(F)(F)F)c1` (centres unmarked) [Structure 164], the AC50 entry is “inactive”.
Still for that read-out and setting: in the case of `CC(=O)Nc1ccc(OCc2cccc(C3Nc4ccccc4C(=O)N3Cc3ccco3)c2)cc1` (centres unmarked) [Structure 165] it was “inactive”; in that of `COc1ccc(CN(Cc2ccccc2)C(=O)c2ccc(NC(C)=O)cc2)cc1COc1ccc(NC(C)=O)cc1` [Structure 166], “inactive”.
For `COc1ccc(C(=O)N(Cc2ccccc2)Cc2ccccc2)cc1COc1ccc(NC(C)=O)cc1` [Structure 167], the “Maximum Activity compared to TSH” value is on record as 24.50. Moreover, the AC50 (read-out: AC50) is 14.1 µM.
Take `COc1ccc(C(=O)N(Cc2ccccc2)Cc2ccc(OC)c(COc3ccc(NC(C)=O)cc3)c2)c(O)c1` [Structure 168]: the AC50 result was “inactive”.
For the compound `COc1ccc(CN(Cc2ccccc2)C(=O)c2ccccc2O)cc1` [Structure 169], the Emax came out at 34%. In addition, the AC50 (read-out: AC50) was found to be 50.1 µM.
As for `COc1ccc(C2Nc3ccccc3C(=O)N2Cc2ccccc2)cc1COc1ccc(C#N)cc1` (centres unmarked) [Structure 170], the AC50 result is “inactive”.
The same measure, in the same setting: in the case of `O=C1CC(c2ccco2)CC2=C1C(c1cccnc1)n1nc(C(F)(F)F)nc1N2` (centres unmarked) [Structure 171] it was “inactive”; in that of `COc1ccc(C2Nc3ccccc3C(=O)N2Cc2ccccc2)cc1COc1ccccc1OC` (centres unmarked) [Structure 172], “inactive”.
